Among the data in ChEMBL document CHEMBL1127229, “New non-peptide angiotensin II receptor antagonists. 1: structure - activity relationships of a series of a series of 2(1H)-pyridinones” (1994) are ED50 and BP decrease values, retold here.

The subject of the first test is Rattus norvegicus. The test is described as follows: In vivo potency determined for AII-induced pressor response in normotensive rats, iv. Type of test: functional. To be noted: read-out: ID50 (the source's name).
For the molecule `CCCc1cc(N)c([N+](=O)[O-])c(=O)n1Cc1ccc(-c2ccccc2-c2nn[nH]n2)cc1`, the ED50 came out at 4.8 mg/kg.

Another test concerns Rattus norvegicus. In words: In vivo potency determined for AII-induced pressor response in normotensive rats, iv administration. Type of test: functional. Particulars: read-out: ID50 (the source's name).
For `CCCc1cc(O)c(C)c(=O)n1Cc1ccc(-c2ccccc2-c2nn[nH]n2)cc1`, the ED50 was determined as 0.027 mg/kg.

In the case of `CCCc1cc(C(=O)O)cc(=O)n1Cc1ccc(-c2ccccc2-c2nn[nH]n2)cc1`, the ED50 came to 0.078 mg/kg.

Regarding `CCCc1cc(CO)cc(=O)n1Cc1ccc(-c2ccccc2-c2nn[nH]n2)cc1`, the ED50 amounted to 0.3 mg/kg.

Turning to `CCCCc1cc(O)cc(=O)n1Cc1ccc(-c2ccccc2-c2nn[nH]n2)cc1`, the ED50 stood at 0.38 mg/kg.

Regarding `CCCc1cc(SC)cc(=O)n1Cc1ccc(-c2ccccc2-c2nn[nH]n2)cc1`, the ED50 worked out at 0.28 mg/kg.

Turning to `CCCc1cc(S)cc(=O)n1Cc1ccc(-c2ccccc2-c2nn[nH]n2)cc1`, the ED50 worked out at 0.017 mg/kg.

`CCCc1cc(OCc2cccnc2)cc(=O)n1Cc1ccc(-c2ccccc2-c2nn[nH]n2)cc1`: the ED50 is 0.72 mg/kg.

Turning to `CCCc1cc(O)cc(=O)n1Cc1ccc(-c2ccccc2-c2nn[nH]n2)cc1`, the ED50 came out at 0.048 mg/kg.

`CCCc1cc(C(=O)NCCN(C)C)cc(=O)n1Cc1ccc(-c2ccccc2-c2nn[nH]n2)cc1`: the ED50 is 0.18 mg/kg.

As for `CCCc1cccc(=O)n1Cc1ccc(-c2ccccc2-c2nn[nH]n2)cc1`, the ED50 came to 1.1 mg/kg.

Consider `CCc1cc(O)cc(=O)n1Cc1ccc(-c2ccccc2-c2nn[nH]n2)cc1`, for which the ED50 was determined as 0.084 mg/kg.

For `CCCc1cc(OC)cc(=O)n1Cc1ccc(-c2ccccc2-c2nn[nH]n2)cc1`, the ED50 is 0.24 mg/kg.

Consider `CCCCc1cc(O)c([N+](=O)[O-])c(=O)n1Cc1ccc(-c2ccccc2-c2nn[nH]n2)cc1`, for which the ED50 is 0.58 mg/kg.

Take `CCCCc1nc(Cl)c(CO)n1Cc1ccc(-c2ccccc2-c2nnn[n-]2)cc1.[K+]` [LOSARTAN POTASSIUM]: the ED50 worked out at 1.2 mg/kg.

The subject of a further test is Rattus norvegicus. The test is described as follows: Tested for lowering of Blood pressure in spontaneous hypertensive rat at a dose of 10mg/kg, po at 6 hr. Type of test: functional.
Settings: not given
In turn, `CCCCc1cc(O)cc(=O)n1Cc1ccc(-c2ccccc2-c2nn[nH]n2)cc1` showed a BP decrease of 36%.
